Test: in vitro
Settings: human, hela cells, % viability

CC(C)(C)OC(=O)N1CCCC(NC(CO)c2ccco2)CC1 (stereo not drawn) [CBK304049]
viability at 28.5 h, 10 µM: 101%

CS(=O)(=O)c1ccc(CN2CCC3(CCN(Cc4ccccc4)CC3)C2)cc1 [CBK144066T]
viability at 28.5 h, 10 µM: 92.2%

c1ccc2[nH]c(CCCCCc3nc4ccccc4[nH]3)nc2c1 [CBK267694]
viability at 28.5 h, 10 µM: 107%

O=c1/c(=C/c2ccncc2)sc2n1CN(c1cccc(F)c1)CN=2 [CBK264340]
viability at 28.5 h, 10 µM: 99.2%

CCCc1[nH]n(-c2ccc([N+](=O)[O-])cc2)c(=O)c1/C=N/N1CCN(C)CC1 [CBK262781]
viability at 28.5 h, 10 µM: 92.8%

O=C(CSc1ccccc1)c1ccccc1 [CBK002224]
viability at 28.5 h, 10 µM: 97.4%

COc1ccccc1C1(NCc2cnn(C)c2)CCCC1 [CBK282744]
viability at 28.5 h, 10 µM: 97%

O=C1/C(=C/c2c(NCCCn3ccnc3)nc3ccccn3c2=O)SC(=S)N1C1CCCCC1 [CBK264696]
viability at 28.5 h, 10 µM: 95.2%

CCNC(=O)NC[C@H]1C[C@@H]2CCN1C[C@@H]2c1cc(-c2ccccc2)nc(C)n1 [CBK289125]
viability at 28.5 h, 10 µM: 116%

COc1cccc(C(=O)Nc2ccc(O)cc2C(=O)O)c1 [CBK268662]
viability at 28.5 h, 10 µM: 104%

Cc1cc(C)nc(Sc2nnc(-c3ccc(C)c(S(=O)(=O)N4CCOCC4)c3)c3ccccc23)n1 [CBK264400]
viability at 28.5 h, 10 µM: 105%

Cc1ccc(C2=NN(C(=O)CNc3cc(F)cc(F)c3)C(c3ccco3)C2)cc1 (stereo not drawn) [CBK297922]
viability at 28.5 h, 10 µM: 94.2%

O=C1N=C(NCc2ccccc2F)OC12CCN(Cc1ccccc1)CC2 [CBK115688]
viability at 28.5 h, 10 µM: 96.2%

COc1ccc(NC(=S)NC(=O)CN2C(=O)c3ccccc3C2=O)c([N+](=O)[O-])c1 [CBK267594]
viability at 28.5 h, 10 µM: 114%

CC(=O)N1CCC2(C/C=C/C[C@H]3CN(C(=O)Cc4cccc(F)c4)CC[C@H]3NC(=O)CNC2=O)CC1 [CBK292103]
viability at 28.5 h, 10 µM: 93.6%

CCOCCNS(=O)(=O)c1ccc(C(C)(C)CC)cc1 [CBK044655]
viability at 28.5 h, 10 µM: 98.2%

CCOC(=O)CN(Cc1ccccc1)Cc1ccc(OC)cc1 [CBK126460]
viability at 28.5 h, 10 µM: 103%

CCN1C(=O)/C(=C/c2cc3c(cc2Cl)OCO3)NC1=S [CBK265117]
viability at 28.5 h, 10 µM: 96.5%

Nc1ccc(S(=O)(=O)c2ccc(-n3c(=O)c4cc5c(=O)n(-c6ccc(S(=O)(=O)c7ccc(N)cc7)cc6)c(=O)c5cc4c3=O)cc2)cc1 [CBK261490]
viability at 28.5 h, 10 µM: 92%

CCN1CC2(CCC1=O)CCN(Cc1nncn1C(C)C)CC2 [CBK307460]
viability at 28.5 h, 10 µM: 107%

CSc1ccccc1NC(=O)CN(c1ccc(F)cc1)S(=O)(=O)c1ccc2c(c1)OCCO2 [CBK266836]
viability at 28.5 h, 10 µM: 101%

O=C(c1ccco1)N1CCC2(CCCNC2)C1 (stereo not drawn) [CBK153233C]
viability at 28.5 h, 10 µM: 93.8%

Cc1nc(-c2ccc(CNC(=O)c3cc(=O)[nH]c4ccccc34)o2)cs1 [CBK238261]
viability at 28.5 h, 10 µM: 79.2%

COc1ccc(CN2CC[C@@H]3[C@H](C2)[C@@H](c2ccc(F)cc2)CN3C(=O)c2ccccc2)cc1 [CBK286290]
viability at 28.5 h, 10 µM: 92.3%

CC1CCCCC1NC(=O)CSc1cccc2cccnc12 (stereo not drawn) [CBK058143]
viability at 28.5 h, 10 µM: 96.9%

O=C(Nc1cc([N+](=O)[O-])ccc1O)c1cccc(C(=O)Nc2cc([N+](=O)[O-])ccc2O)c1 [CBK261168]
viability at 28.5 h, 10 µM (bulk resorufin, single well): 102%

Nc1ccc(CCNC(=O)c2cnc(-c3ccc(Cl)cc3)c(-c3ccco3)c2)cc1 [CBK036686]
viability at 28.5 h, 10 µM: 99.7%

CCN(C)S(=O)(=O)c1ccc(Cl)c(Cl)c1 [CBK045392]
viability at 28.5 h, 10 µM: 113%

Cc1ccc2[nH]c3c(c2c1)CC(NS(=O)(=O)c1c(N)noc1C)CC3 (stereo not drawn) [CBK306270]
viability at 28.5 h, 10 µM: 86.6%

CC(=O)Nc1cccc(-c2nccnc2NS(=O)(=O)c2cccs2)c1 [CBK050760]
viability at 28.5 h, 10 µM: 92.7%

O=C(O)CCCn1cc(NC(=O)Cc2ccccc2F)cn1 [CBK270119]
viability at 28.5 h, 10 µM: 96.3%

FC(F)(F)c1ccc(OCCN2CCOCC2)nc1 [CBK113461]
viability at 28.5 h, 10 µM: 101%

Cc1cc(=O)c(O)c(CN2CCC(C(=O)O)CC2)o1 [CBK286843]
viability at 28.5 h, 10 µM: 87.6%

Cc1noc(C)c1CN1CCC(Oc2ccccc2)CC1 [CBK305811]
viability at 28.5 h, 10 µM: 89.6%

CCN1CC(C(=O)NCc2ccc(CN3CCCCC3)cc2)CC1=O (stereo not drawn) [CBK281400]
viability at 28.5 h, 10 µM: 87.3%

Cc1nc2nc(N)nn2c(C)c1CCC(=O)NCCc1ccccc1 [CBK304989]
viability at 28.5 h, 10 µM: 89.5%

CC(=O)Nc1ccc(S(=O)(=O)NC2(C(F)(F)F)C(=O)Nc3c2c(=O)[nH]c(=O)n3CCc2ccccc2)cc1 (stereo not drawn) [CBK267937]
viability at 28.5 h, 10 µM: 104%

OC[C@]1(c2ccccc2)CC[C@H](N2CCCC2)CC1 [CBK016010]
viability at 28.5 h, 10 µM: 85.5%

Cc1cc(C(=O)N2CCC(C(=O)NC(c3cnccn3)c3ccccc3C)CC2)no1 (stereo not drawn) [CBK059810]
viability at 28.5 h, 10 µM: 93.6%

CC(CCc1ccccc1)NC(=O)C(C)Sc1nnc(-c2cccs2)n1C1CC1 (stereo not drawn) [CBK297131]
viability at 28.5 h, 10 µM: 89.5%

O=C(O)c1cc(-c2ccco2)nc2ccccc12 [CBK027882]
viability at 28.5 h, 10 µM: 98.3%

CC(NC(=O)N1CCSCC1)c1cccc(Br)c1 (stereo not drawn) [CBK306475]
viability at 28.5 h, 10 µM: 86.2%

O=C(O)CSc1nnc(SCc2cccc3ccccc23)s1 [CBK266215]
viability at 28.5 h, 10 µM: 81.4%

COc1ccccc1OC(=O)c1ccccc1Cl [CBK090164]
viability at 28.5 h, 10 µM: 81.4%

CC(C)Oc1ccc(C(=O)C2=C(O)C(=O)N(Cc3cccnc3)C2c2ccncc2)cc1 (stereo not drawn) [CBK264920]
viability at 28.5 h, 10 µM: 90%

N=C(N)SCc1ncccc1O [CBK278318C]
viability at 28.5 h, 10 µM: 102%

Cc1nc(C)c(S(=O)(=O)Nc2ccccc2-c2nnnn2C(C)C)s1 [CBK305508]
viability at 28.5 h, 10 µM: 96.3%

Cn1c(N2CC[C@H](O)C2)nc2cc(C(=O)NCCc3cscn3)ccc21 [CBK306824]
viability at 28.5 h, 10 µM: 88.5%

Cc1cc(C)n(Cc2cc(C(=O)NCC(C)Oc3cccnc3)n[nH]2)n1 (stereo not drawn) [CBK307609]
viability at 28.5 h, 10 µM: 85.9%

O=C1CC(C(=O)Nc2cccc(C(=O)O)c2)C(c2ccccc2)O1 (stereo not drawn) [CBK293968]
viability at 28.5 h, 10 µM: 87.1%

O=C(O)CCCNc1ncnc2c1oc1ccccc12 [CBK287573]
viability at 28.5 h, 10 µM: 101%

Cc1cc2c(s1)c1cnn(Cc3cccnc3)c(=O)c1n2C [CBK284154]
viability at 28.5 h, 10 µM: 79.1%

COC(=O)[C@H]1CCc2ccccc2N1C(C)=O [CBK284256]
viability at 28.5 h, 10 µM: 90.2%

COCCN(Cc1cnn(C)c1)C(=O)c1cc(=O)c2cccc(F)c2[nH]1 [CBK306651]
viability at 28.5 h, 10 µM: 83.8%

S=c1[nH]nc2ccc(N3CCOCC3)nn12 [CBK008327]
viability at 28.5 h, 10 µM: 101%

CC(C)N1CCc2c(sc3nc(SCc4ccc(Cl)cc4)n(Cc4ccccc4)c(=O)c23)C1 [CBK263745]
viability at 28.5 h, 10 µM: 84.4%

O=C(O)c1cc(Sc2nnnn2-c2ccccc2)c2ccccc2c1O [CBK006925]
viability at 28.5 h, 10 µM: 87.8%

COc1ccc(CC(=O)N2CCN(C(C)c3nc4ccccc4s3)CC2)cc1F (stereo not drawn) [CBK297733]
viability at 28.5 h, 10 µM: 95.9%

CN(C)CCN(C)C(=O)c1ccc(-c2cccc(C(=O)NCCO)c2)nc1N1CCOCC1 [CBK076592]
viability at 28.5 h, 10 µM: 92.5%

CSCCN1CCC(Oc2nccnc2OCc2cccnc2)CC1 [CBK083173]
viability at 28.5 h, 10 µM: 90.3%

CC1(C)[C@H]2CC[C@]1(C)[C@@H](OCCNc1ccccc1)C2 [CBK021967]
viability at 28.5 h, 10 µM: 87.8%

CCCC/C=C/c1cncc(NCc2ccc(OC)cc2)n1 [CBK037933]
viability at 28.5 h, 10 µM: 96.7%

CC(Cn1cccn1)NCC(=O)NC1(C#N)CCCCC1 (stereo not drawn) [CBK304845]
viability at 28.5 h, 10 µM: 102%

NS(=O)(=O)c1ccc(CCNC(=O)/C=C/c2ccc([N+](=O)[O-])cc2)cc1 [CBK265683]
viability at 28.5 h, 10 µM: 110%

CC(C)[C@H](CO)Nc1nccnc1-c1ccc(C(=O)N2CCOCC2)cc1 [CBK037012]
viability at 28.5 h, 10 µM: 97.7%

Cc1nn(C)c(Cl)c1S(=O)(=O)Nc1nn(Cc2ccc(C#N)cc2)c2ccccc12 [CBK048185]
viability at 28.5 h, 10 µM: 111%

OC(CN1CCC(O)(c2ccccc2F)CC1)c1ccc(Cl)cc1 (stereo not drawn) [CBK283312]
viability at 28.5 h, 10 µM: 87%

COc1ccc([C@@]23CC[C@@H](NC(=O)Nc4ccc5ccccc5c4)C[C@@H]2N(C)CC3)cc1OC [CBK034181T]
viability at 28.5 h, 10 µM: 102%

CC(C)(C)C(=O)N1CCC(n2nc(C3CC3)ccc2=O)CC1 [CBK284242]
viability at 28.5 h, 10 µM: 84.6%

Cc1oc2c(c1CC(=O)N(C)CCN(C)C)C(=O)CC(C)(C)C2 [CBK282171]
viability at 28.5 h, 10 µM: 105%

CC(CN(C)C(=O)Cn1cccc(C(=O)NC2CCCCC2)c1=O)c1ccccc1 (stereo not drawn) [CBK286066]
viability at 28.5 h, 10 µM: 92.5%

CCNC(=O)CN(C)S(=O)(=O)c1cc(Cl)ccc1Cl [CBK091853]
viability at 28.5 h, 10 µM: 94.1%

C=CCn1c(SCC(=O)Nc2ccccn2)nnc1-c1ccc(Br)cc1 [CBK022413]
viability at 28.5 h, 10 µM: 96.3%

COc1ccc(C(=O)CSc2nnc(-c3ccccc3)c3ccccc23)cc1OC [CBK297088]
viability at 28.5 h, 10 µM: 93.3%

O=C1N=C(N2CCCCCC2)SC1CC(=O)N1CCCc2ccccc21 (stereo not drawn) [CBK063336]
viability at 28.5 h, 10 µM: 93.4%

COCC(=O)N1CCC(c2cc3nc(C(F)(F)F)ccc3[nH]2)CC1 [CBK282185]
viability at 28.5 h, 10 µM: 110%

CC(=O)Nc1ccc(CNC(=O)c2ccc(C(F)(F)F)cn2)cc1 [CBK252121]
viability at 28.5 h, 10 µM: 92%

CCOc1cc(OCC)cc(C(=O)N2CCC3(CC2)CC(=O)c2c(OC)cccc2O3)c1 [CBK168012]
viability at 28.5 h, 10 µM: 108%

Cc1n[nH]c(-c2ccc(OCc3cnn(-c4ccccc4)c3)cc2O)c1Oc1ccc(F)cc1 [CBK264461]
viability at 28.5 h, 10 µM: 116%

Cc1cccc(C(=O)NCCCNC(=O)c2ccncc2)c1 [CBK269572]
viability at 28.5 h, 10 µM: 92.8%

Cc1nc(CN2CCCN(S(=O)(=O)c3ccc(C(=O)c4ccccc4)cc3)CC2)c[nH]1 [CBK063029]
viability at 28.5 h, 10 µM: 113%

CCOc1ccc2nc(SCc3nc(N)nc(Nc4cccc(Cl)c4C)n3)sc2c1 [CBK265202]
viability at 28.5 h, 10 µM: 83.1%

CCc1cc(Br)ccc1S(=O)(=O)Nc1cccc2cccnc12 [CBK045012]
viability at 28.5 h, 10 µM: 87.8%

Cc1csc(C(Cc2ccsc2)NC(=O)c2scnc2C)n1 (stereo not drawn) [CBK285098]
viability at 28.5 h, 10 µM: 106%

COCCNc1nccnc1-c1ccsc1 [CBK038008]
viability at 28.5 h, 10 µM: 95.4%

CC(C(=O)NC1CCCN(CC(F)(F)F)C1)n1cnc2ccccc21 (stereo not drawn) [CBK304185]
viability at 28.5 h, 10 µM: 96.6%

Cn1c(-c2ccccc2)c(C(=O)C(N)=O)c2ccccc21 [CBK288465]
viability at 28.5 h, 10 µM: 104%
